{"source": "patent US10154968B2", "about": "“Buprenorphine nanoparticle composition and methods thereof” (AUBURN UNIVERSITY, priority 2012, dated 2018)", "origin": "cited, not measured here", "data": [{"molecule": "CO[C@@]12CC[C@@]3(C[C@@H]1[C@](C)(O)C(C)(C)C)[C@H]1Cc4ccc(O)c5c4[C@@]3(CCN1CC1CC1)[C@H]2O5", "note": "[Buprenorphine, (25)-2-[(5R,6R,7R,145)-9α-Cyclopropylmethyl-4,5-epoxy-6,14-ethano-3-hydroxy-6-methoxymorphinan-7-yl]-3,3-dimethylbutan-2-ol]", "values": [{"measurement": "half-life", "setting": "background statement", "result": "approximately two"}, {"measurement": "excreted unchanged in the urine", "setting": "previous studies", "result": 27, "unit": "%"}]}]}
